# Source: patent publication US8822449B2, “Substituted aminoindanes and analogs thereof, and the pharmaceutical use thereof” (Sanofi, priority 2008, dated 2014)
# Target: T1, sodium-proton exchanger of subtype 3 (NHE3) (Homo sapiens, UniProt P48764)
# T1 construct: expressed in transfected cells
# T1 sequence (P48764 26-834): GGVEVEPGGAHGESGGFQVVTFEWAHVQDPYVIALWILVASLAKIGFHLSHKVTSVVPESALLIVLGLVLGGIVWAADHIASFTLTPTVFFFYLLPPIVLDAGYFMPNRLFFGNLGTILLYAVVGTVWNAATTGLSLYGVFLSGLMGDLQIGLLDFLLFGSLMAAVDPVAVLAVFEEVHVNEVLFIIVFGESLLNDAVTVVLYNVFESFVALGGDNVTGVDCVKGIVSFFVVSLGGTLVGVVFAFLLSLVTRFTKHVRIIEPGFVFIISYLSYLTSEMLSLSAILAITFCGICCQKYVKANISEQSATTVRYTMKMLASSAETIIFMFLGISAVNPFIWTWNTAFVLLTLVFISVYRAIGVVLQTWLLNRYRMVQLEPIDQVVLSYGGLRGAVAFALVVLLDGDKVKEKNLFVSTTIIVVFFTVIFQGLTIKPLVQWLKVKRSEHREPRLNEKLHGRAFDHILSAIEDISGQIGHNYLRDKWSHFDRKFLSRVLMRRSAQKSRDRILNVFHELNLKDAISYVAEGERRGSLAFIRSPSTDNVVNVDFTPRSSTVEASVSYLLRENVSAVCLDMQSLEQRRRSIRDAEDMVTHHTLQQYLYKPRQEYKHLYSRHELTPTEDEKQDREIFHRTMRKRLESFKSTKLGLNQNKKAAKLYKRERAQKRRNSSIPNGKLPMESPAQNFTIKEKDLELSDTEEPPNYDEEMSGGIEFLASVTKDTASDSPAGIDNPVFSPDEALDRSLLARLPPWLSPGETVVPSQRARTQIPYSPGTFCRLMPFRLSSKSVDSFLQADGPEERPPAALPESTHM
# Assay: Recovery of intracellular pH (pHi) after acidification in LAP1 cells stably expressing NHE3 (BCECF fluorescence, FLIPR)
# Assay type: cell-based
# Settings: LAP1 cells stably expressing NHE3; pH recovery after acidification; range 1 is % inhibition at 10 μM; read-out: Activity range (inhibitory effect on NHE3)
SMILES,IC50,inhibition at 10 µM
"Cn1ccn(-c2ccc(Cl)c(O[C@H]3c4cc(Cl)cc(Cl)c4C[C@@H]3N3CC[C@@H](O)C3)c2)c1=O [Example 335, 1-{4-chloro-3-[(1S,2S)-4,6-dichloro-2-((R)-3-hydroxypyrrolidin-1-yl)indan-1-yloxy]phenyl}-3-methyl-1,3-dihydroimidazol-2-one]",< 1 µM,
"CC(=O)Nc1cccc(OC2c3ccccc3CC2N2CCCC2)c1 (racemic) [Example 641, N-[3-(rac-trans-(1,2)-2-pyrrolidin-1-ylindan-1-yloxy)phenyl]acetamide]",< 1 µM,
"N#Cc1ccc(O[C@H]2c3ccccc3CC[C@@H]2N2CCC[C@@H](N)C2)c(Cl)c1 (racemic) [Example 514, 4-[rac-trans-(1,2)-2-((R)-3-aminopiperidin-1-yl)-1,2,3,4-tetrahydronaphthalen-1-yloxy]-3-chlorobenzonitrile]",1 to 10 µM,
"O=c1[nH]ccn1-c1ccc(O[C@H]2c3cc(Cl)cc(Cl)c3C[C@@H]2N2CC[C@@H](O)C2)cc1 [Example 325, 1-{4-[(1S,2S)-4,6-dichloro-2-((R)-3-hydroxypyrrolidin-1-yl)indan-1-yloxy]phenyl}-1,3-dihydroimidazol-2-one]",< 1 µM,
"O=S1(=O)CCCN1c1cccc(O[C@H]2c3cc(Cl)cc(Cl)c3C[C@@H]2N2CC[C@@H](O)C2)c1 [Example 123, (R)-1-{trans-(1S,2S)-4,6-dichloro-1-[3-(1,1-dioxo-1lambda6-isothiazolidin-2-yl)phenoxy]indan-2-yl}pyrrolidin-3-ol]",1 to 10 µM,
"NC(=O)c1cccc(O[C@@H]2c3ccccc3C[C@H]2N2C[C@H]3CNC[C@H]3C2)c1 (racemic) [Example 410, 3-[rac-trans-(1,2)-2-(hexahydropyrrolo[3,4-c]pyrrol-2-yl)indan-1-yloxy]benzamide]",1 to 10 µM,
"CS(=O)(=O)c1ccc(O[C@H]2c3cc(Cl)cc(Cl)c3C[C@@H]2N2CCC[C@@H](NCCC(F)(F)F)C2)cc1 [Example 223, {(R)-1-[trans-(1S,2S)-4,6-dichloro-1-(4-methanesulfonylphenoxy)indan-2-yl]piperidin-3-yl}-(3,3,3-trifluoropropyl)amine]",< 1 µM,
"Cc1nnc(C)n1-c1ccc(O[C@H]2c3cc(Cl)cc(Cl)c3C[C@@H]2N2CC[C@@](C)(O)C2)cc1 (racemic) [Example 111, (R)-1-{(1S,2S)-4,6-dichloro-1-[4-(3,5-dimethyl-[1,2,4]triazol-4-yl)phenoxy]indan-2-yl}-3-methylpyrrolidin-3-ol]",< 1 µM,
"Nc1ccc2c(O[C@H]3c4ccccc4CC[C@@H]3N3CCOCC3)cccc2c1 (racemic) [Example 569, 5-(rac-trans-(1,2)-2-morpholin-4-yl-1,2,3,4-tetrahydronaphthalen-1-yloxy)naphthalen-2-ylamine]",,20 to 50%
"CCCC1(N)CCCN([C@H]2Cc3c(Cl)cc(Cl)cc3[C@@H]2Oc2ccc(S(C)(=O)=O)cc2)C1 (stereo partly drawn) [Example 300, 1-[trans-(1S,2S)-4,6-dichloro-1-(4-methanesulfonylphenoxy)indan-2-yl]-3-propylpiperidin-3-ylamine]",1 to 10 µM,
"CC(=O)Nc1cccc(O[C@@H]2c3ccccc3C[C@H]2N2CCC(CN)CC2)c1 (racemic) [Example 688, N-{3-[rac-trans-(1,2)-2-(4-aminomethylpiperidin-1-yl)indan-1-yloxy]phenyl}acetamide]",1 to 10 µM,
"N[C@@H]1CCCN([C@@H]2Cc3ccccc3[C@H]2Oc2ccc3oc(=O)sc3c2)C1 (racemic) [Example 579, 5-[rac-trans-(1,2)-2-((R)-3-aminopiperidin-1-yl)indan-1-yloxy]benzo[1,3]oxathiol-2-one]",1 to 10 µM,
"CN(c1ccc(F)c(O[C@H]2c3cc(Cl)cc(F)c3C[C@@H]2N2CC[C@@H](O)C2)c1)S(C)(=O)=O [Example 673, N-{3-[(1S,2S)-6-chloro-4-fluoro-2-((R)-3-hydroxypyrrolidin-1-yl)indan-1-yloxy]-4-fluorophenyl}-N-methyl-methanesulfonamide]",1 to 10 µM,
"CSc1ccc(O[C@H]2c3ccccc3CC[C@@H]2N2CCC[C@H](N)C2)cc1 (racemic) [Example 183, (S)-1-[rac-trans-(1,2)-1-(4-methylsulfanylphenoxy)-1,2,3,4-tetrahydronaphthalen-2-yl]piperidin-3-ylamine]",,20 to 50%
"CS(=O)(=O)c1cccc(O[C@H]2c3ccccc3C[C@@H]2N2CCCC2)c1 (racemic) [Example 269, 1-[rac-trans-(1,2)-1-(3-methanesulfonylphenoxy)indan-2-yl]pyrrolidine]",,20 to 50%
"Nc1ccc2c(O[C@H]3c4ccccc4CC[C@@H]3N3CCC[C@@H](N)C3)cccc2c1 (racemic) [Example 80, (R)-1-[rac-trans-(1,2)-1-(6-aminonaphthalen-1-yloxy)-1,2,3,4-tetrahydronaphthalen-2-yl]piperidin-3-ylamine]",1 to 10 µM,
"CN(C1CCCNC1)[C@@H]1Cc2ccccc2[C@H]1Oc1ccc(S(N)(=O)=O)c(Cl)c1Cl (mixture of isomers) [Example 360, 2,3-dichloro-4-[rac-trans-(1,2)-2-(methylpiperidin-3-ylamino)indan-1-yloxy]benzenesulfonamide]",1 to 10 µM,
"N#Cc1cc(Cl)ccc1O[C@H]1c2ccccc2CC[C@@H]1N1CCC[C@H](N)C1 (racemic) [Example 371, 2-[rac-trans-(1,2)-2-((S)-3-aminopiperidin-1-yl)-1,2,3,4-tetrahydronaphthalen-1-yloxy]-5-chlorobenzonitrile]",,20 to 50%
"Cc1cc(C#N)cc(C)c1O[C@H]1c2ccccc2CC[C@@H]1N1CCC[C@@H](N)C1 (racemic) [Example 511, 4-[rac-trans-(1,2)-2-((R)-3-aminopiperidin-1-yl)-1,2,3,4-tetrahydronaphthalen-1-yloxy]-3,5-dimethylbenzonitrile]",,20 to 50%
"CC(=O)Nc1cccc(OC2c3ccccc3CC2N2CC[C@@H](N3CCCC3)C2)c1 (mixture of isomers) [Example 670, N-[rac-trans-(1,2)-3-((R)-2-[1,3′]bipyrrolidinyl-1′-ylindan-]",,20 to 50%
"CCn1c(C)nn(-c2ccc(O[C@H]3c4cc(Cl)cc(Cl)c4C[C@@H]3N3CC[C@@H](O)C3)cc2)c1=O [Example 737, 2-{4-[trans-(1S,2S)-4,6-Dichloro-2-((R)-3-hydroxy-pyrrolidin-1-yl)-indan-1-yloxy]-phenyl}-4-ethyl-5-methyl-2,4-dihydro-[1,2,4]triazol-3-one]",1 to 10 µM,
"N[C@H]1CCCN([C@H]2CCc3ccccc3[C@@H]2Oc2ccc(NC(=O)OCc3ccccc3)cc2)C1 (racemic) [Example 239, {4-[rac-trans-(1,2)-2-((S)-3-aminopiperidin-1-yl)-1,2,3,4-tetrahydronaphthalen-1-yloxy]phenyl}carbamic acid benzyl ester]",,20 to 50%
"COCCc1ccc(O[C@H]2c3ccccc3CC[C@@H]2N2CCC[C@@H](N)C2)cc1 (racemic) [Example 115, (R)-1-{rac-trans-(1,2)-1-[4-(2-methoxyethyl)phenoxy]-1,2,3,4-tetrahydronaphthalen-2-yl}piperidin-3-ylamine]",,20 to 50%
"Cc1nnc(C)n1-c1ccc(O[C@H]2c3cc(Cl)cc(Cl)c3C[C@@H]2N2CCCC2)c(F)c1 [Example 499, 4-[4-(trans-(1S,2S)-4,6-dichloro-2-pyrrolidin-1-ylindan-1-yloxy)-3-fluorophenyl]-3,5-dimethyl-4H-[1,2,4]triazole]",< 1 µM,
"COc1cccc(CC#N)c1O[C@H]1c2ccccc2CC[C@@H]1N1CCOCC1 (racemic) [Example 213, [3-methoxy-2-(rac-trans-(1,2)-2-morpholin-4-yl-1,2,3,4-tetrahydronaphthalen-1-yloxy)phenyl]acetonitrile]",,20 to 50%
"O=C1COC(=O)N1c1ccc(O[C@H]2c3cc(Cl)cc(Cl)c3C[C@@H]2N2CC[C@@H](O)C2)cc1 [Example 427, 3-{4-[(1S,2S)-4,6-dichloro-2-((R)-3-hydroxypyrrolidin-1-yl)indan-1-yloxy]phenyl}oxazolidine-2,4-dione]",1 to 10 µM,
"CS(=O)(=O)c1ccc(O[C@H]2c3cc(Cl)cc(Cl)c3C[C@@H]2N2CCN(C3CC3)CC2)cc1 [Example 351, 1-Cyclopropyl-4-[trans-(1S,2S)-4,6-dichloro-1-(4-methanesulfonylphenoxy)indan-2-yl]piperazine]",,20 to 50%
"Cc1nnc(C)n1-c1ccc(O[C@H]2c3cc(Cl)ccc3C[C@@H]2N2CCCC2)cc1 [Example 502, 4-[4-(trans-(1S,2S)-6-chloro-2-pyrrolidin-1-ylindan-1-yloxy)phenyl]-3,5-dimethyl-4H-[1,2,4]triazole]",< 1 µM,
"CS(=O)(=O)c1ccc(O[C@H]2c3ccccc3C[C@@H]2N2CCNCC2)cc1 (racemic) [Example 272, 1-[rac-trans-(1,2)-1-(4-methanesulfonylphenoxy)indan-2-yl]piperazine]",1 to 10 µM,
